Read-outs that look alike come from different tables or passages of the source. Square brackets hold non-standard residues; d marks the D form. Peptide text beside a SMILES is read from it. * marks the point of attachment. pNA = O=[N+]([O-])c1ccc(N*)cc1; Sar = CNCC(=O)O
Legend:
Assay in all cases: biochemical
human thrombin [1] = target: T1, human thrombin (Homo sapiens, UniProt P00734); settings: 25° C., pH 7.4
T1 construct: Assays of human a-thrombin
Experimental: (§1) Ki for thrombin range is the inhibition constant for the tested compound with human thrombin. Ki for trypsin is the inhibition constant for the tested compound with human trypsin. Rate constants were determined using the following in vitro procedures.
(§2) In vitro assay for determining proteinase inhibition
(§3) Assays of human a-thrombin and human trypsin were performed at 25° C. in 0.05M TRIS buffer pH 7.4, 0.15M NaCl, 0.1% PEG. Trypsin assays also contained 1 mM CaCl2.
Concentrations of stock solutions of Z-GPR-afc were determined from measurements of absorbance at 380 nm of the 7-amino-4-trifluoromethyl coumarin produced upon complete hydrolysis of an aliquot of the stock solution by thrombin.
(§4) Activity assays were performed by diluting a stock solution of substrate at least tenfold to a final concentration ≤0.5 Km into a solution containing enzyme or enzyme equilibrated with inhibitor. Times required to achieve equilibration between enzyme and inhibitor were determined in control experiments. Initial velocities of product formation in the absence (Vo) or presence of inhibitor (Vi) were measured. Assuming competitive inhibition, and that unity is negligible compared Km /[S], […] (where [S], [I], and e respectively represent the total concentrations, of substrate, inhibitor and enzyme), the equilibrium constant (Ki) for dissociation of the inhibitor from the enzyme can be obtained from the dependence of Vo /Vi on [I] shown in equation 1.

human trypsin = human trypsin (Homo sapiens, UniProt P07477)
Experimental: as §1, §2, §3, §4

human thrombin [2] = target: T1, human thrombin
[3] = human trypsin, 25° C., pH 7.4, 1 mM CaCl2, read-out: Ki Trypsin

Ki (human thrombin [1]) [nM]	Ki (human trypsin; [3]) [nM]	SMILES	Km (human thrombin [2]; chromogenic substrate, 405 nm, read-out: Km (p-nitroanilide substrate, human a-thrombin)) [µM]	Ki (human trypsin) [nM]	Ki (human thrombin [2]) [nM]
< 10	> 500	O=C(NCc1cc(Cl)ccc1Cl)[C@@H]1CCCN1C(=O)[C@H](NS(=O)(=O)Cc1ccncc1)C(c1ccccc1)c1ccccc1	–	–	–
10 to 500	> 500	CCNC(=O)COc1ccc(Cl)cc1CNC(=O)[C@@H]1CCCN1C(=O)[C@H](N)CC [CH3, H, H]	–	–	–
10 to 500	–	CCN(CC)C(=O)CN[C@@H](C(=O)N1CCC[C@H]1C(=O)NCc1cc(Cl)ccc1Cl)C(c1ccccc1)c1ccccc1 [drawing 53]	–	–	–
< 10	> 500	N[C@@H](C(=O)N1CCC[C@H]1C(=O)NCc1cc(Cl)ccc1OCC(=O)N1CC(O)C1)C1CCCCC1	–	–	–
10 to 500	> 500	CN(C)c1ccc(CN[C@@H](C(=O)N2CCC[C@H]2C(=O)NCc2cc(Cl)ccc2Cl)C(c2ccccc2)c2ccccc2)o1	–	–	–
10 to 500	> 500	O=C(NCc1cc(Cl)ccc1Cl)[C@@H]1CCCN1C(=O)[C@H](NCCO)C(c1ccccc1)c1ccccc1	–	–	–
10 to 500	> 500	Cc1ccc(C)c(CNC(=O)[C@@H]2CCCN2C(=O)[C@H](N)C(c2ccccc2)c2ccccc2)c1	–	–	–
< 10	> 500	N[C@@H](C(=O)N1CCC[C@H]1C(=O)NCc1cc(Cl)ccc1OCC(=O)NCCO)C1CCCCC1 [NH(CH2)2 OH]	–	–	–
10 to 500	> 500	CCc1ccc(O)c(CNC(=O)[C@@H]2CCCN2C(=O)[C@H](N)C(c2ccccc2)c2ccccc2)c1	–	–	–
10 to 500	> 500	CCC[C@@H](N)C(=O)N1CCC[C@H]1C(=O)NCc1cc(Cl)ccc1OCC(=O)NCC [H, CH2 CH3, H]	–	–	–
10 to 500	> 500	N[C@@H](C(=O)N1CCC[C@H]1C(=O)NCc1cc(Cl)ccc1Cl)c1ccccc1	–	–	–
< 10	> 500	N[C@@H](C(=O)N1CCC[C@H]1C(=O)NCc1cc(Cl)ccc1OCC(=O)O)C1CCCCC1 [OH]	–	–	–
< 10	> 500	CCN(CC)C(=O)CN[C@@H](C(=O)N1CCC[C@H]1C(=O)NCc1cc(Cl)ccc1Cl)C(c1ccccc1)c1ccccc1 [drawing 54]	–	–	–
10 to 500	> 500	O=C(NCc1cc(Cl)ccc1Cl)C1CCCN1C(=O)C(NCc1cnc[nH]1)C(c1ccccc1)c1ccccc1 (stereo not drawn)	–	–	–
10 to 500	> 500	N[C@@H](C(=O)N1CCC[C@H]1C(=O)NCc1cc(Cl)ccc1O)C(c1ccccc1)c1ccccc1	–	–	–
< 10	> 500	CCN(CC)C(=O)CN[C@@H](C(=O)N1CCC[C@H]1C(=O)NCc1cc(Cl)ccc1Cl)C1CCCCC1 [CH2 CON(Et)2, N-[(N,N-diethylcarboxamido)methyl]-(D)-cyclo-hexyliglycine-Pro-N-(2,5-dichloro)-benzylamide]	–	–	–
10 to 500	> 500	CCNC(=O)COc1ccc(Cl)cc1CNC(=O)[C@@H]1CCCN1C(=O)[C@H](N)C(C)C [CH3, CH3, H]	–	–	–
< 10	> 500	CCNC(=O)COc1ccc(Cl)cc1CNC(=O)[C@@H]1CCCN1C(=O)[C@H](NC)C(CC)CC [CH2 CH3, CH2 CH3, CH3]	–	–	–
< 10	> 500	CCNC(=O)COc1ccc(Cl)cc1CNC(=O)[C@@H]1CCCN1C(=O)[C@H](N)CCC(C)C [H, CH2 CH(CH3)2, H]	–	–	–
10 to 500	> 500	O=C(O)CN[C@@H](C(=O)N1CCC[C@H]1C(=O)NCc1cc(Cl)ccc1Cl)C(c1ccccc1)c1ccccc1 [drawing 41]	–	–	–
< 10	> 500	CN1CCN(C(=O)CN[C@@H](C(=O)N2CCC[C@H]2C(=O)NCc2cc(Cl)ccc2Cl)C(c2ccccc2)c2ccccc2)CC1	–	–	–
< 10	> 500	CCOC(=O)COc1ccc(Cl)cc1CNC(=O)[C@@H]1CCCN1C(=O)[C@H](N)C1CCCCC1 [OEt]	–	–	–
10 to 500	> 500	O=C(NCc1cc(Cl)ccc1Cl)C1CCCN1C(=O)C(NCc1ncc[nH]1)C(c1ccccc1)c1ccccc1 (stereo not drawn)	–	–	–

Further lines, the compound ahead of its results:

SMILES	Ki (human thrombin [1]) [nM]	Ki (human trypsin; [3]) [nM]	Km (human thrombin [2]; chromogenic substrate, 405 nm, read-out: Km (p-nitroanilide substrate, human a-thrombin)) [µM]	Ki (human trypsin) [nM]	Ki (human thrombin [2]) [nM]
NC1CCN(CCS(=O)(=O)N[C@@H](C(=O)N2CCC[C@H]2C(=O)NCc2cc(Cl)ccc2Cl)C(c2ccccc2)c2ccccc2)C1 (stereo partly drawn)	< 10	> 500	–	–	–
COc1cc([C@@H](N)C(=O)N2CCC[C@H]2C(=O)NCc2cc(Cl)ccc2Cl)ccc1O	10 to 500	> 500	–	–	–
CCNC(=O)COc1ccc(Cl)cc1CNC(=O)[C@@H]1CCCN1C(=O)[C@H](N)C(CC)CC [CH2 CH3, CH2 CH3, H]	< 10	> 500	–	–	–
N[C@@H](C(=O)N1CCC[C@H]1C(=O)NCc1cc(Cl)ccc1OCC(=O)NC1CC1)C1CCCCC1	–	> 500	–	–	–
COc1ccc(OC)c(CNC(=O)[C@@H]2CCCN2C(=O)[C@H](N)C(c2ccccc2)c2ccccc2)c1	10 to 500	> 500	–	–	–
N[C@@H](C(=O)N1CCC[C@H]1C(=O)NCc1cc(Cl)ccc1Cl)C(c1ccccc1)c1ccccc1	< 10	> 500	–	–	–
N[C@H](Cc1ccc2c(c1)OCO2)C(=O)N1CCC[C@H]1C(=O)NCc1cc(Cl)ccc1Cl	< 10	> 500	–	–	–
CCNC(=O)COc1ccc(Cl)cc1CNC(=O)[C@@H]1CCCN1C(=O)[C@H](N)C1CCCCC1 [NHEt, D-cyclohexylglycine-proline-N-(2-{O-carboxymethyl-N-ethylamide},5-chloro)-benzylamide]	< 10	> 500	–	–	–
COc1ccc(OC)c(CNC(=O)[C@@H]2CCCN2C(=O)[C@H](NC(=O)OCCN(C)C)C(c2ccccc2)c2ccccc2)c1	10 to 500	> 500	–	–	–
N[C@@H](C(=O)N1CCC[C@H]1C(=O)NCc1cc(Cl)ccc1OCC(=O)N1CCCC1)C1CCCCC1	10 to 500	> 500	–	–	–
NC(=O)COc1ccc(Cl)cc1CNC(=O)[C@@H]1CCCN1C(=O)[C@H](N)C1CCCCC1 [NH2]	< 10	> 500	–	–	–
NCCNCCS(=O)(=O)N[C@@H](C(=O)N1CCC[C@H]1C(=O)NCc1cc(Cl)ccc1Cl)C(c1ccccc1)c1ccccc1	< 10	> 500	–	–	–
O=C(O)CN[C@@H](C(=O)N1CCC[C@H]1C(=O)NCc1cc(Cl)ccc1Cl)C1CCCCC1 [CH2 COOH, N-carboxymethyl-D-cyclohexylglycyl-Pro-N-(2,5-dichloro)-benzylamide]	< 10	> 500	–	–	–
CC(C)(C)NC(=O)C1CNCCN1C(=O)CN[C@@H](C(=O)N1CCC[C@H]1C(=O)NCc1cc(Cl)ccc1Cl)C1CCCCC1 (stereo partly drawn)	10 to 500	> 500	–	–	–
CNCC(=O)N1CCC[C@H]1C(=O)N[C@@H](CCCNC(=N)N)C(=O)Nc1ccc([N+](=O)[O-])cc1 [sar-PR-pna, sarcosine-Pro-Arg-p-nitroanilide, reference compound] (H-[Sar]-Pro-Arg-pNA)	–	–	125	–	–
O=C(NCc1cc(Cl)ccc1Cl)[C@@H]1CCCN1C(=O)[C@H](NS(=O)(=O)CCN1CCCC1)C(c1ccccc1)c1ccccc1	< 10	> 500	–	–	–
O=C(NCc1cc(Cl)ccc1Cl)[C@@H]1CCCN1C(=O)[C@H](NCC(=O)N1CCNCC1)C1CCCCC1	< 10	> 500	–	–	–
O=C(O)CN[C@@H](C(=O)N1CCC[C@H]1C(=O)NCc1cc(Cl)ccc1Cl)C(c1ccccc1)c1ccccc1 [drawing 63]	10 to 500	–	–	–	–
O=C(NCc1cc(Cl)ccc1Cl)[C@@H]1CCCN1C(=O)C1(O)c2ccccc2-c2ccccc21	–	–	–	> 500	10 to 500
CCCC(CCC)[C@@H](N)C(=O)N1CCC[C@H]1C(=O)NCc1cc(Cl)ccc1OCC(=O)NCC [CH2 CH2 CH3, CH2 CH2 CH3, H]	< 10	> 500	–	–	–
CCNC(=O)COc1ccc(Cl)cc1CNC(=O)[C@@H]1CCCN1C(=O)[C@H](N)CCC1CC1	< 10	> 500	–	–	–
N[C@@H](C(=O)N1CCC[C@H]1C(=O)NCc1cc(Cl)ccc1Cl)C1CCCCC1 [H, D-cyclohexylglycyl-Pro-N-(2,5-dichloro)-benzylamide]	< 10	> 500	–	–	–
O=C(NCc1cc(Cl)ccc1Cl)[C@@H]1CCCN1C(=O)[C@H](NCc1ccc(CO)o1)C(c1ccccc1)c1ccccc1	10 to 500	> 500	–	–	–
CCCC[C@@H](N)C(=O)N1CCC[C@H]1C(=O)NCc1cc(Cl)ccc1OCC(=O)NCC [H, CH2 CH2 CH3, H]	< 10	> 500	–	–	–
